From patent publication US20210228511A1, “NEURONAL AGONISTS AND ISOTONIC OR HYPERTONIC SALINE FOR TREATING RESPIRATORY DISEASES” (University of Saskatchewan, priority 2020, published 2021)
Where two headings read alike, the source gives them in different places.

Assays:
[1] = test system: ex vivo swine trachea preparations; test: Mucociliary clearance assay, tantalum disk movement on excised swine trachea
airway submucosal glands = test: Fluid secretion assay of airway submucosal glands (droplets under oil); conditions: WT swine, FIG. 12
Method: To confirm that both exemplary neuronal agonists capsaicin and menthol stimulate active fluid secretion by airway submucosal glands in WT swine, the effect of exemplary neuronal agonists menthol and capsaicin was on fluid secretion rate was measured using the secretion assay as described elsewhere^21. The mucosal layer from trachea or primary bronchus, with underlying glands, was dissected from the cartilage. A piece of tissue of about 1 cm^2 was pinned mucosal side up and mounted in a 35-mm-diameter plastic Petri dish lined with Sylgard (Dow Corning Corp). The serosal side was immersed in a bathing solution ( 1 ml volume), and the mucosa was in air. Before experimentation, the mucosal surface was gently cleaned and blotted dry with cotton swabs and further dried with a stream of air, after water-saturated mineral oil was placed on the surface.

live wild-type swine = test: ASL layer height by synchrotron phase contrast imaging, live wild-type swine; conditions: added alone to HTS, WT swine in vivo, lesser extent than with capsaicin, FIG. 11
isolated swine trachea = test: ASL layer height by synchrotron phase contrast imaging, isolated wild-type swine trachea (ex vivo)
[2] = ex vivo wild-type trachea, HTS 7% w/v NaCl, 18 min

C=C(C)[C@@H]1CC[C@@H](C)C[C@H]1O [(−)-isopulegol, (1R,2S,5R)-2-Isopropenyl-5-methylcyclohexanol]
duration of HTS-triggered mucociliary clearance ([1]; wild-type swine ex vivo, added to HTS, measured at 0, 90 and 150 min, FIG. 15): extended the duration of HTS-triggered mucociliary clearance

CC1CCC(C(C)C)C(O)C1 (stereo not shown) [menthol, 5-Methyl-2-(propan-2-yl)cyclohexan-1-ol]
ASL secretion by the submucosal glands (airway submucosal glands): triggers significant ASL secretion | duration of treatment (live wild-type swine): increase the intensity and duration of treatment | intensity of treatment (live wild-type swine): increase the intensity and duration of treatment

O=C(O)c1ccc(/C=C2\SC(=S)N(c3cccc(C(F)(F)F)c3)C2=O)cc1 [CFTRinh172]
effect on HTS-triggered ASL secretion, time course (isolated swine trachea; wild-type swine trachea preparations ex vivo, FIG. 8): decreases the effect of HTS on ASL secretion

Ic1ccccc1CN[C@@H]1C2CCN(CC2)[C@@H]1C(c1ccccc1)c1ccccc1 [L-703606]
effect on HTS-triggered ASL layer height increase (isolated swine trachea; [2]): significantly reduced | effect on ASL layer height in ITS-treated preparations (isolated swine trachea; ex vivo wild-type trachea, ITS 0.9% w/v NaCl, 18 min): had no effect | effect on response to HTS treatment in preparations incubated with CFTRinh172 (isolated swine trachea; ex vivo, CFTRinh172 100 μM (model of airways without CFTR function), 18 min): unaffected

N=C(N)NC(=O)c1nc(Cl)c(N)nc1N [amiloride]
effect on HTS-triggered ASL layer height increase (isolated swine trachea; [2]): did not affect HTS treatment

CN1[C@@H]2CC[C@H]1C[C@@H](OC(=O)C(CO)c1ccccc1)C2 (stereo partly shown) [atropine]
effect on ASL layer height in ITS-treated preparations (isolated swine trachea): had no effect | effect on HTS-triggered ASL layer height increase (isolated swine trachea): reduced HTS-triggered ASL secretion | effect on ITS-treated preparations incubated with CFTRinh172 (isolated swine trachea): had no effect | effect on response to HTS treatment in preparations incubated with CFTRinh172 (isolated swine trachea): reduced the response to HTS treatment

COc1cc(CNC(=O)CCCC/C=C/C(C)C)ccc1O [capsaicin, (6E)-N-[(4-Hydroxy-3-methoxyphenyl)methyl]-8-methylnon-6-enamide]
HTS-triggered increase in mucociliary clearance ([1]; WT swine airways, added to HTS, FIG. 13): augmented | ITS-triggered increase in mucociliary clearance ([1]; WT swine airways, added to ITS, FIG. 13): augmented | ASL secretion by the submucosal glands (airway submucosal glands): triggers significant ASL secretion
